We go through 23 compounds from ChEMBL document CHEMBL1743201, “Casarett and Doull's Toxicology The Basic Science of Poisons, 7th edition” (2008).

Assay type in all cases: ADME
In data set [1] the target is Cytochrome P450 2D6 (Homo sapiens, UniProt P10635). Kind of data set: Clinically relevant inhibitors of human liver microsomal P450 enzymes, isoform CYP2D6. The following applies: microsomes.
Data set [2] has as its target T1, UDP-glucuronosyltransferase 1A4 (Homo sapiens, UniProt P22310).
T1 sequence (P22310 whole entry): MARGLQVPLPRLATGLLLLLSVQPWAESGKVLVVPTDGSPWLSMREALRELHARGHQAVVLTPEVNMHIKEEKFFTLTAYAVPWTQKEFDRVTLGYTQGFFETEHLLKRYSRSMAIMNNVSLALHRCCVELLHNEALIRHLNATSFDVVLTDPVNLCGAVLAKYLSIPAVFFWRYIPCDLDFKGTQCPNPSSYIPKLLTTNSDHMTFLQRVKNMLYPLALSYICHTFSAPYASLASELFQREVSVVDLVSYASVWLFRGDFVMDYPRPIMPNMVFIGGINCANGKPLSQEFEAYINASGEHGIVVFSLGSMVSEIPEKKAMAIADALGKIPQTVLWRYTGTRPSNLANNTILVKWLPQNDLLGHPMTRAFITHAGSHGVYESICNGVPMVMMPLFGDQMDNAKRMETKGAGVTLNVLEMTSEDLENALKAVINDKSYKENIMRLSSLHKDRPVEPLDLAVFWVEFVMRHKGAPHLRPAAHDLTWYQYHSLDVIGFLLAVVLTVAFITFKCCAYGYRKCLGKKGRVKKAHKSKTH
Briefly: Substrate of human UDP-glucuronosyltransferase UGT1A4.

Data set [3] has as its target T2, UDP-glucuronosyltransferase 2B7 (Homo sapiens, UniProt P16662).
T2 sequence (P16662 whole entry): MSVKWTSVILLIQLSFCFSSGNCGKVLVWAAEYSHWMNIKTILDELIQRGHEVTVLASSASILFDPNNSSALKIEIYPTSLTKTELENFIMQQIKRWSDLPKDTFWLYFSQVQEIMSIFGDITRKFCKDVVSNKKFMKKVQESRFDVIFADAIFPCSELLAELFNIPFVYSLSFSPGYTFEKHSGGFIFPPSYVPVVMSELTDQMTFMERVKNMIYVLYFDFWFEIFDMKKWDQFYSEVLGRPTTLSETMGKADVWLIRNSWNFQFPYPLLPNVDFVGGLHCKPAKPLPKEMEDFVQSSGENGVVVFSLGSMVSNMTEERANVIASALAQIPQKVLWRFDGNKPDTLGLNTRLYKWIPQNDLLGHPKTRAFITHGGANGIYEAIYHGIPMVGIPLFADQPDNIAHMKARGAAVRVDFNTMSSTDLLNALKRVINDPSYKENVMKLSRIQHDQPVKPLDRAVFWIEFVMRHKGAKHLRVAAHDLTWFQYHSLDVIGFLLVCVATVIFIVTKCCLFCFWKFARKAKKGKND
Briefly: Substrate of human UDP-glucuronosyltransferase UGT2B7.

Data set [4] has as its target T3, UDP-glucuronosyltransferase 1A9 (Homo sapiens, UniProt O60656).
T3 sequence (O60656 whole entry): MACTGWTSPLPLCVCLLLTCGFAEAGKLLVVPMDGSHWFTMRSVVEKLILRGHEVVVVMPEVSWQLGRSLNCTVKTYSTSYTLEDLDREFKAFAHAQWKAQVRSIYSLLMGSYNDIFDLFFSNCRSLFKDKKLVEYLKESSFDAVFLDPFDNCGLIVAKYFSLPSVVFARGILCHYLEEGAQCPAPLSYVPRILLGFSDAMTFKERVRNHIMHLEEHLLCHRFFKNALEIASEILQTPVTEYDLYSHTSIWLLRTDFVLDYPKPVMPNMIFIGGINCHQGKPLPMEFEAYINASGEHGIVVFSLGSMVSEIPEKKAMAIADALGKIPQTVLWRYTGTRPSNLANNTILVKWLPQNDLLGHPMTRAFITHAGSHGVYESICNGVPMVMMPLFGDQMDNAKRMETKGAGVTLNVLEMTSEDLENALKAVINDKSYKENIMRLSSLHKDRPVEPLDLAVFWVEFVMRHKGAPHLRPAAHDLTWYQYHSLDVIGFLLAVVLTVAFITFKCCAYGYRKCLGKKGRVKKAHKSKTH
Kind of data set: Substrate of human UDP-glucuronosyltransferase UGT1A9.

Data set [5] deals with T4, UDP-glucuronosyltransferase 2B15 (Homo sapiens, UniProt P54855).
T4 sequence (P54855 whole entry): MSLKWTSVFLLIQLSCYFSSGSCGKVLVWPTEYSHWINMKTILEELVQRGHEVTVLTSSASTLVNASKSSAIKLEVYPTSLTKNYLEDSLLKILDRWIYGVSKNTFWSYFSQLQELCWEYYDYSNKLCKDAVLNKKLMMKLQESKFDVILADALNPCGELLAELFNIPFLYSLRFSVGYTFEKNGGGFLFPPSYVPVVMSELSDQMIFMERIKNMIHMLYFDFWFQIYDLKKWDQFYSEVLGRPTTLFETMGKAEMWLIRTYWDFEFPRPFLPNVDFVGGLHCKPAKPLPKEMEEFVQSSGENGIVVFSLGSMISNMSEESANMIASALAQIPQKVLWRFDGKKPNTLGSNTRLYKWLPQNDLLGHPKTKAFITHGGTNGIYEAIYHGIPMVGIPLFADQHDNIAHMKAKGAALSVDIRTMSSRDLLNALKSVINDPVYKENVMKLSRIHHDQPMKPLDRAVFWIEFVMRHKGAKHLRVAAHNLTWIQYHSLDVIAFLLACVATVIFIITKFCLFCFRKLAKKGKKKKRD
Briefly: Substrate of human UDP-glucuronosyltransferase UGT2B15.

Data set [6] concerns the target T5, UDP-glucuronosyltransferase 1A6 (Homo sapiens, UniProt P19224).
T5 sequence (P19224 whole entry): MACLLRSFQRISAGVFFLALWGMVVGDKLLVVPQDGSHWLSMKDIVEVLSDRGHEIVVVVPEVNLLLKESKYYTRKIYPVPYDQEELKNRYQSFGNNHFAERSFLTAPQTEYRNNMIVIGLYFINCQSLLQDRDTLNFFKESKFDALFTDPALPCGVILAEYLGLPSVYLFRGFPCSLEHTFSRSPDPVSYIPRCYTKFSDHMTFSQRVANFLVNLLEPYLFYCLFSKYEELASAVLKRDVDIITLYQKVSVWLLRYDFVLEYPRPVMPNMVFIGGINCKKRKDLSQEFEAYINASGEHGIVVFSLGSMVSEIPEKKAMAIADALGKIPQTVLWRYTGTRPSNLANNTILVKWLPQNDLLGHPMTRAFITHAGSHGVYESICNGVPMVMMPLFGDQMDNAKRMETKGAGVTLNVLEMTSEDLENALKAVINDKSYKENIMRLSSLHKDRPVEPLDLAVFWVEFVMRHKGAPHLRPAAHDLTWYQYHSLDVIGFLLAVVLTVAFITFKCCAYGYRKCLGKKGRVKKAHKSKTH
Kind of data set: Substrate of human UDP-glucuronosyltransferase UGT1A6.

The target in data set [7] is T6, Cytochrome P450 2C9 (Homo sapiens, UniProt P11712). Briefly: Clinically relevant substrates of human liver microsomal P450 enzymes, isoform CYP2C9. As to conditions: microsomes. (Liver microsomes are vesicles of endoplasmic reticulum, rich in cytochrome P450 enzymes.)
T6 sequence (P11712 whole entry, canonical isoform): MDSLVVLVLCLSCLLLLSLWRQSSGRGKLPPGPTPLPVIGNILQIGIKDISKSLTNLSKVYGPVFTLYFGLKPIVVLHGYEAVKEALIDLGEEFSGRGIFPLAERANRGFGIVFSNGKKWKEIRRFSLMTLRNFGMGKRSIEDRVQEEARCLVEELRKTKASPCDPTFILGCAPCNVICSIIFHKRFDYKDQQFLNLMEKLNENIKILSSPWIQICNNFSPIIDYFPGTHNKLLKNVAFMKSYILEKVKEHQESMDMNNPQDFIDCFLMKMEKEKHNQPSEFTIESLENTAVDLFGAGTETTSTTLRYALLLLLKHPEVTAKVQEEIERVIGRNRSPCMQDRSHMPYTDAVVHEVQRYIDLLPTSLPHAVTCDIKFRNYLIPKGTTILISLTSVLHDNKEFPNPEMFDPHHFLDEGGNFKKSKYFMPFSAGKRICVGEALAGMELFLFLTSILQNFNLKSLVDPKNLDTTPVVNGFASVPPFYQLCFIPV
Data set [8] concerns the target T6, Cytochrome P450 2C9. Briefly: Clinically relevant inhibitors of human liver microsomal P450 enzymes, isoform CYP2C9. As to conditions: microsomes.
In data set [9] the target is Cytochrome P450 2C19 (Homo sapiens, UniProt P33261). Briefly: Clinically relevant substrates of human liver microsomal P450 enzymes, isoform CYP2C19. As to conditions: microsomes.
Sequence of Cytochrome P450 2C19 (P33261 whole entry, canonical isoform): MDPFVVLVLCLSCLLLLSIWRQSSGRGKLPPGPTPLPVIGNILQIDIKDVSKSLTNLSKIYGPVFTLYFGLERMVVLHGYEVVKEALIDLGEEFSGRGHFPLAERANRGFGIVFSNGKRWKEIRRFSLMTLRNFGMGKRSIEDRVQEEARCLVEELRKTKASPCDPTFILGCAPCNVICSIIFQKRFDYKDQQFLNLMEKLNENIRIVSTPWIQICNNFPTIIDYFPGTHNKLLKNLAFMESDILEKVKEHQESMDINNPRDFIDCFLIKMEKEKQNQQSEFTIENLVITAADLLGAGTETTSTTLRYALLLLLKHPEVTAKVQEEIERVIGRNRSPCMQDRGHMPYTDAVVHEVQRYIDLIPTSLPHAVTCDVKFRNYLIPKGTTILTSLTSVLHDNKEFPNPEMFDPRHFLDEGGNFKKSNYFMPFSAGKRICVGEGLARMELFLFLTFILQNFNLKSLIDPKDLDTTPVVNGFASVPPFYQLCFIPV
Data set [10] has as its target T7, Cytochrome P450 1A2 (Homo sapiens, UniProt P05177).
T7 sequence (P05177 whole entry): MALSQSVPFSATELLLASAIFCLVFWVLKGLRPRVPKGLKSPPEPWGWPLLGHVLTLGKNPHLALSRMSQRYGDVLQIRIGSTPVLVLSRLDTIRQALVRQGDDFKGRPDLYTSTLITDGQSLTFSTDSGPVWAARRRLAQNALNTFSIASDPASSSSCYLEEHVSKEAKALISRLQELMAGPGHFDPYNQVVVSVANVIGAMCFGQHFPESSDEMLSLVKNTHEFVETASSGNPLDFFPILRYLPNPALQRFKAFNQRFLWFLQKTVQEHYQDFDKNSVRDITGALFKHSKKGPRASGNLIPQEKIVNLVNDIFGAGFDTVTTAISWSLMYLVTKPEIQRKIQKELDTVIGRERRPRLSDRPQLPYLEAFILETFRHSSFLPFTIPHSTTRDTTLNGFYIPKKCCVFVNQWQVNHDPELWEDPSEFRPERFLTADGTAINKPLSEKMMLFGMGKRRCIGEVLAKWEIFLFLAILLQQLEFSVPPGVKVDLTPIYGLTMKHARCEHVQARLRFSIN
Briefly: Clinically relevant inhibitors of human liver microsomal P450 enzymes, isoform CYP1A2. As to conditions: microsomes.

Data set [11] concerns the target T8, UDP-glucuronosyltransferase 1A7 (Homo sapiens, UniProt Q9HAW7).
T8 sequence (Q9HAW7 whole entry): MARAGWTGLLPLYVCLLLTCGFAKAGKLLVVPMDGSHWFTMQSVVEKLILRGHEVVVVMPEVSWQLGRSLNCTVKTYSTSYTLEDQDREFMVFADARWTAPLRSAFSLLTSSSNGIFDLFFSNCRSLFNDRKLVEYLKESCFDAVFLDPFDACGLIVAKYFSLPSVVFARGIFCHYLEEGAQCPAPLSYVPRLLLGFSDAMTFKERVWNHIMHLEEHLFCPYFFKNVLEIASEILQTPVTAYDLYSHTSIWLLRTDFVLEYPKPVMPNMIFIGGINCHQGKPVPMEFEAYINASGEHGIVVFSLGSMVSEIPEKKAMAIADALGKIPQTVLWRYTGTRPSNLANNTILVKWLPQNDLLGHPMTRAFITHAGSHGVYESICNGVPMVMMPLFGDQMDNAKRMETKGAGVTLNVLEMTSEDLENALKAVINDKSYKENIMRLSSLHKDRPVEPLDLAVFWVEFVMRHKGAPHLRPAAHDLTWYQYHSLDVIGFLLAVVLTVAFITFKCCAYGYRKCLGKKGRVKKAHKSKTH
Kind of data set: Substrate of human UDP-glucuronosyltransferase UGT1A7.

Data set [12] concerns the target T7, Cytochrome P450 1A2. Kind of data set: Clinically relevant inducers of human liver microsomal P450 enzymes, isoform CYP1A2. As to conditions: microsomes.

Molecules are shown by their SMILES.

Sequence of Cytochrome P450 2D6 (P10635 whole entry, canonical isoform): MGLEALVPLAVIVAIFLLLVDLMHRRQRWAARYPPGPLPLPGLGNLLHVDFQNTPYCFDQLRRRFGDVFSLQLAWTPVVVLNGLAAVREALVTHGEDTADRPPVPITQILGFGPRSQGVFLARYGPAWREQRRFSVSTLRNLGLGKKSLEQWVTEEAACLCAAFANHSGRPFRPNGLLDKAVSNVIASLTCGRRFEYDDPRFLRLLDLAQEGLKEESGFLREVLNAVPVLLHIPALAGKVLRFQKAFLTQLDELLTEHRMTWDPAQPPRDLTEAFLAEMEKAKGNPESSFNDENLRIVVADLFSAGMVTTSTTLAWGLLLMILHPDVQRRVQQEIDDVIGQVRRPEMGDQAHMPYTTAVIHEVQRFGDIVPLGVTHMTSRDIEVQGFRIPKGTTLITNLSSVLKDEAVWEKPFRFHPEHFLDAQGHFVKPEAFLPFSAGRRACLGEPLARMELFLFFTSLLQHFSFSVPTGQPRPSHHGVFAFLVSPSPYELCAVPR

On to `Fc1ccc([C@@H]2CCNC[C@H]2COc2ccc3c(c2)OCO3)cc1` [PAROXETINE], for which the Activity result in data set [1] is given as “Inhibitor”. In the case of `CN(C)CCC=C1c2ccccc2C=Cc2ccccc21` [CYCLOBENZAPRINE], the Activity result in data set [2] is listed as “Substrate”. For `O=C(O)Cc1ccccc1Nc1c(Cl)cccc1Cl` [DICLOFENAC], the Activity entry in data set [3], in [4], in data set [5], in data set [6] and in data set [7] was “Substrate” in each case. Regarding `COCC(=O)O[C@]1(CCN(C)CCCc2nc3ccccc3[nH]2)CCc2cc(F)ccc2[C@@H]1C(C)C` [MIBEFRADIL], the Activity result in [1] was “Inhibitor”. `CNCCC(Oc1ccc(C(F)(F)F)cc1)c1ccccc1` (configuration not stated) [FLUOXETINE]: the values for the Activity entry in data set [8], in data set [9] and in [7] were “Inhibitor”, “Substrate” and “Substrate”, respectively. As to `Nc1nnc(-c2cccc(Cl)c2Cl)c(N)n1` [LAMOTRIGINE], the Activity result in [2] is on record as “Substrate”.

Take `CN[C@H]1CC[C@@H](c2ccc(Cl)c(Cl)c2)c2ccccc21` [SERTRALINE]: in [1], the Activity entry is on record as “Inhibitor”. `CC(c1cc2ccccc2s1)N(O)C(N)=O` (configuration not stated) [ZILEUTON]: in data set [10], the Activity entry is on record as “Inhibitor”. Regarding `CN/C(=N/CCSCc1nc[nH]c1C)NC#N` [CIMETIDINE], the Activity entry in data set [10] and in [1] was “Inhibitor” throughout. Turning to `Oc1ccc(-c2ccccc2)cc1`, the Activity entry in data set [11] is recorded as “Substrate”. As to `Cc1c(OCC(F)(F)F)ccnc1C[S+]([O-])c1nc2ccccc2[nH]1` (configuration not stated) [LANSOPRAZOLE], the Activity entry in data set [12] is listed as “Inducer”; in [9], “Substrate”. Regarding `CN(C/C=C/C#CC(C)(C)C)Cc1cccc2ccccc12` [TERBINAFINE], the Activity entry in data set [1] is given as “Inhibitor”.

Take `CN1CCN(CCCN2c3ccccc3Sc3ccc(C(F)(F)F)cc32)CC1` [TRIFLUOPERAZINE]: the Activity entry in data set [2] is given as “Substrate”. As for `Cc1cccc(C)c1OCC(C)N` (configuration not stated) [MEXILETINE], the Activity entry in data set [10] was “Inhibitor”.

For `CN(C)CCC=C1c2ccccc2CCc2ccccc21` [AMITRIPTYLINE], the Activity entry in data set [2] is listed as “Substrate”.

On to `Cc1ccc2cc3c(ccc4ccccc43)c3c2c1CC3` [3-METHYLCHOLANTHRENE], for which the Activity result in [12] is “Inducer”. `COc1ccnc(C[S+]([O-])c2nc3ccc(OC(F)F)cc3[nH]2)c1OC` (configuration not stated) [PANTOPRAZOLE]: in [9], the Activity result is “Substrate”.

For the compound `CCCCCCCCOC(=O)c1cc(O)c(O)c(O)c1` [OCTYL_GALLATE], the Activity entry in data set [11] is on record as “Substrate”. For the compound `CCn1cc(C(=O)O)c(=O)c2cc(F)c(N3CCNCC3)cc21` [NORFLOXACIN], in [10], the Activity result is listed as “Inhibitor”. As for `Cc1cc2c(s1)Nc1ccccc1N=C2N1CCN(C)CC1` [OLANZAPINE], the Activity result in [2] is “Substrate”. Consider `O=c1cc(-c2ccccc2)oc2ccc3ccccc3c12` [BETA-NAPHTHOFLAVONE], for which, in data set [12], the Activity result is listed as “Inducer”. With `COCCCC/C(=N\OCCN)c1ccc(C(F)(F)F)cc1` [FLUVOXAMINE], the Activity entry in [8] and in [10] was “Inhibitor” throughout.

In the case of `O=C(NCCN1CCOCC1)c1ccc(Cl)cc1` [MOCLOBEMIDE], in data set [9], the Activity entry is recorded as “Substrate”.
